Test results published in US20130225517A1, “Therapeutic Compounds” (University of Iowa Research Foundation, priority 2012, published 2013).
Like-named read-outs stand apart in the source and are kept apart here.

Legend:
Dnmt1 [1] = molecular target: T1, Dnmt1 (Homo sapiens, UniProt P26358); experiment: Differential scanning fluorimetry, direct binding to Dnmt1; conditions: increase from 44° C.; absence of the DNA or S-adenosyl methionine substrate
Protocol: (§1) Laccaic acid A was further validated as a Dnmt1 inhibitor in three assays. First, laccaic acid was screened against the methyl-specific restriction endonuclease Glal (SibEnzyme, West Roxbury, Mass.) to ensure that the compound was not inhibiting Glal rather than Dnmt1. Under all conditions tested, Glal had full activity in the presence of laccaic acid A. Next, the concentration dependence of laccaic acid A inhibition on Dnmt1 activity was assessed. Increasing concentrations of laccaic acid A were used in the endonuclease-coupled DNA methylation assay to determine an IC50 value for the compound. Laccaic acid A was determined to have an IC50 value of 400 nM. […] Lastly, differential scanning fluorimetry was used to determine if laccaic acid A was a direct binder of Dnmt1 in the absence of the DNA or S-adenosyl methionine substrate.

[2] = system: methyl-specific restriction endonuclease Glal; experiment: Counter-screen against methyl-specific restriction endonuclease Glal; assay type: biochemical; conditions: under all conditions tested
Protocol: as §1

Dnmt1 [3] = molecular target: T1, Dnmt1; experiment: Glal restriction endonuclease-coupled DNA methylation assay (Test A); assay type: biochemical
From the text: (§2) A Glal restriction endonuclease-coupled DNA methylation assay was used to assess Dnmt1 activity (Syeda et al, J Biol Chem 2011, 286, 15344-15351). Upon methylation of the DNA substrate by Dnmt1, the DNA substrate is cleaved by Glal, freeing a 5′ fluorophore from the 3′ quencher, and generating a fluorescence signal. Inhibition of Dnmt1 results in a loss of fluorescence generation.
as §2, with “assay” for “assay was used”
First, laccaic acid was screened against the methyl-specific restriction endonuclease Glal (SibEnzyme, West Roxbury, Mass.) to ensure that the compound was not inhibiting Glal rather than Dnmt1. […] Increasing concentrations of laccaic acid A were used in the endonuclease-coupled DNA methylation assay to determine an IC50 value for the compound. […] Lastly, differential scanning fluorimetry was used to determine if laccaic acid A was a direct binder of Dnmt1 in the absence of the DNA or S-adenosyl methionine substrate.

[4] = Table 1, Glal restriction endonuclease-coupled DNA methylation assay, read-out: IC50 (μM), Dnmt1 inhibition activity

T1 sequence (P26358 whole entry): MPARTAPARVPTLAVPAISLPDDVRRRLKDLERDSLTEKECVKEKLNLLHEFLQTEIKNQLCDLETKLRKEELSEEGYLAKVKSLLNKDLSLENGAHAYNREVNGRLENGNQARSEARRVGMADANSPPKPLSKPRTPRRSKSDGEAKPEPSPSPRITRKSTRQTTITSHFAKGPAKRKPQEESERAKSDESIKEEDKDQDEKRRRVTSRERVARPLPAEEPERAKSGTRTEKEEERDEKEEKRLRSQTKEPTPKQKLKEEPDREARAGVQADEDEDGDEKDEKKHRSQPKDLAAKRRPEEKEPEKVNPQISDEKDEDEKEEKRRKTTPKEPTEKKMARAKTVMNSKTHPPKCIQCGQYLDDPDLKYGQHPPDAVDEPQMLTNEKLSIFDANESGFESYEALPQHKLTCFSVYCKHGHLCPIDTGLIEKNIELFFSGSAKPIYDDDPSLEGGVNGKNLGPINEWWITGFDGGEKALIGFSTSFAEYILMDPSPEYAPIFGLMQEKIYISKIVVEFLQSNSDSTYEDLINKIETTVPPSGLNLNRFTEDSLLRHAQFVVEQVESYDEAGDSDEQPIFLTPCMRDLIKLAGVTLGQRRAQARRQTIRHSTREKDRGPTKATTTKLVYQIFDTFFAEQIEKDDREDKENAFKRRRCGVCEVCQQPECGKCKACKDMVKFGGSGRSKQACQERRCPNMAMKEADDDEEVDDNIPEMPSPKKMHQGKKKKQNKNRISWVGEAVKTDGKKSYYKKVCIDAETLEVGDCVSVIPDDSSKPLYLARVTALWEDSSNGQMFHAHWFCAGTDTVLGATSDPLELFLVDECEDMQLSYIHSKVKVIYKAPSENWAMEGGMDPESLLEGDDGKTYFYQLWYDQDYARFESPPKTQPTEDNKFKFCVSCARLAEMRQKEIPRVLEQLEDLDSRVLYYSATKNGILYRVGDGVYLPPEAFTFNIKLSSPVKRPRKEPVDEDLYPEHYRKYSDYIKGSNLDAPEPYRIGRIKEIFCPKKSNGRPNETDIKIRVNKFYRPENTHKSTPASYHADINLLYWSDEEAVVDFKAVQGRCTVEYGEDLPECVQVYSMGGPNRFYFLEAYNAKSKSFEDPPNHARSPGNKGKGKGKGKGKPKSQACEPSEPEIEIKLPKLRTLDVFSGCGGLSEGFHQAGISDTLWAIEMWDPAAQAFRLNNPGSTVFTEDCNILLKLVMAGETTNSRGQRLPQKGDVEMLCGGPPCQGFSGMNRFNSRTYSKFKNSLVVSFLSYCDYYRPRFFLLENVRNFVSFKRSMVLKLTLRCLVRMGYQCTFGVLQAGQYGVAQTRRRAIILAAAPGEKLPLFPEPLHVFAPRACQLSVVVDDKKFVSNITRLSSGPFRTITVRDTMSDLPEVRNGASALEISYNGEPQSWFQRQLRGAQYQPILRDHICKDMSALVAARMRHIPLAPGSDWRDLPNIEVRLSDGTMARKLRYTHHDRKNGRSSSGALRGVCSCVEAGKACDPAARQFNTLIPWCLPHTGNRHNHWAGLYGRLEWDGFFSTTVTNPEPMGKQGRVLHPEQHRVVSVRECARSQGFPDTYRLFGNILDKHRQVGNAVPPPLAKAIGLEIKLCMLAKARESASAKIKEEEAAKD

IC50 (Dnmt1 [3]; [4]) [µM] | SMILES | further results
2.1 | CC(=O)NCCc1ccc(O)c(-c2c(O)c(O)c3c(c2O)C(=O)c2c(cc(O)c(C(=O)O)c2C(=O)O)C3=O)c1 [II, Laccaic Acid A] | observed melting temperature of Dnmt1 after addition of compound (Dnmt1 [1]): 45.7 °C; Glal activity in the presence of compound [2]: full activity; IC50 (Dnmt1 [3]; increasing concentrations in the endonuclease-coupled DNA methylation assay, read-out: IC50 value, inhibition of Dnmt1 activity): 0.4 µM; fold more potent at inhibition of Dnmt1 than SG14027 (Dnmt1 [3]; ratio of IC50 values, versus SG14027): 5 fold; outcome of high throughput screen for inhibitors of Dnmt1 activity (Dnmt1 [3]; screen of the Spectrum collection (Microsource)): hit
0.45 | O=C(O)c1cc(O)c2c(c1)[C@@H]([C@H]1c3cc(C(=O)O)cc(O)c3C(=O)c3c(O[C@H]4O[C@H](CO)[C@@H](O)[C@H](O)[C@H]4O)cccc31)c1cccc(O[C@H]3O[C@H](CO)[C@@H](O)[C@H](O)[C@H]3O)c1C2=O [IV, Sennoside A, reference compound] | 
0.33 | O=C(O)C(S)C(S)C(=O)O (centres unmarked) [IX, 2,3-Dimercaptosuccinic Acid, reference compound] | 
0.45 | O=C(O)c1cc(O)c2c(c1)[C@@H]([C@@H]1c3cc(C(=O)O)cc(O)c3C(=O)c3c(O[C@H]4O[C@H](CO)[C@@H](O)[C@H](O)[C@H]4O)cccc31)c1cccc(O[C@H]3O[C@H](CO)[C@@H](O)[C@H](O)[C@H]3O)c1C2=O [V, Sennoside B, reference compound] | 
6.1 | CSc1nc2cc(Cl)c(Oc3cccc(Cl)c3Cl)cc2[nH]1 [XI, Triclabendazole, reference compound] | 

SMILES | IC50 (Dnmt1 [3]; [4]) [µM] | further results
Oc1cc(Cl)ccc1Oc1ccc(Cl)cc1Cl [III, Triclosan, reference compound] | 3.8 | 
O=C1c2ccccc2C(=O)c2c1ccc(O)c2O [VI, Alizarin] | 11 | 
O=c1c(O)c(-c2ccc(O)c(O)c2)oc2c(O)c(O)cc(O)c12 [VII, Gossypetin] | 2.9 | 
O=C1C=CC(=O)c2c(O)cccc21 [VIII, Juglone] | 1.7 | 
